≈ marks a conversion by molar mass, not a printed value. Like-named read-outs stand apart in the source and are kept apart here.
Legend:
[1] = solubility in water containing 2% ascorbic acid (solution A) and in water containing 2% ascorbic acid and 10% propylene glycol (solution B), with pH of the resulting solutions; type: physicochemical
Method: The compounds of the present invention show a marked solubility in water as well as in mixtures of water with other pharmaceutically acceptable solvents miscible with water. In particular, the solubility of the compounds of the present invention in comparison with rifampicin was assayed in water containing 2% ascorbic acid (solution A) and in water containing 2% ascorbic acid and 10% propylene glycol (solution B) and the pH of the resulting solutions was recorded.

[2] = cited from earlier work
[3] = test system: Staphylococcus aureus Tour; test: antibacterial activity in mice infected with Staphylococcus aureus Tour; type: in vivo; details: sc, values in parentheses as printed, read-out: ED50 against S. aureus Tour
Method: As expected, this slight delay in hydrolysis in vivo reflects in a median effective dose (ED50) for the compounds of formula I somewhat higher than for rifampicin. In particular the antibacterial activity of the compounds of the present invention was tested in mice infected with Staphylococcus aureus Tour.

[4] = solution A: water containing 2% ascorbic acid
[5] = water with 2% ascorbic acid, solution A: water containing 2% ascorbic acid, read-out: solubility

Row | pH of the resulting solution [1, 4] | solubility [1, 5] | SMILES | ED50 [3] | also measured
1 |  |  | CO[C@H]1/C=C/O[C@@]2(C)Oc3c(C)c(O)c4c(O)c(c(/C=N/N5CCN(C)CC5)c(O)c4c3C2=O)NC(=O)/C(C)=C\C=C\[C@H](C)[C@H](O)[C@@H](C)[C@@H](O)[C@@H](C)[C@H](OC(C)=O)[C@@H]1C [rifampicin, 3-[[(4-methyl-1-piperazinyl)imino]methyl]rifamycin] |  | pH of the resulting solution ([1]; in either solution (A or B)): 3.5-3.6; solubility ([1]; water with 2% ascorbic acid): < 50 mg/mL; solubility in various aqueous media [2]: lower than 20 mg/ml
2 | 4.0 | 100 mg/mL (≈ 116 mM) | CO[C@H]1/C=C/O[C@@]2(C)Oc3c(C)c(OC(C)=O)c4c(O)c(c(/C=N/N5CCN(C)CC5)c(O)c4c3C2=O)NC(=O)/C(C)=C\C=C\[C@H](C)[C@H](O)[C@@H](C)[C@@H](O)[C@@H](C)[C@H](OC(C)=O)[C@@H]1C [Example 4, 3-[[(4-methyl-1-piperazinyl)imino]methyl]rifamycin 8-acetate] | 0.35 mg/kg | solubility ([1]; organic solvent or mixture, solution B: water containing 2% ascorbic acid and 10% propylene glycol, read-out: solubility): 150 mg/mL (≈ 173 mM); pH of the resulting solution ([1]; solution B: water containing 2% ascorbic acid and 10% propylene glycol): 4.2
3 |  |  | CCOC(=O)Oc1c(C)c2c3c4c(O)c(/C=N/N5CCN(C)CC5)c(c(O)c14)NC(=O)/C(C)=C\C=C\[C@H](C)[C@H](O)[C@@H](C)[C@@H](O)[C@@H](C)[C@H](OC(C)=O)[C@H](C)[C@@H](OC)/C=C/O[C@@](C)(O2)C3=O [Example 6, 3-[[(4-methyl-1-piperazinyl)imino]methyl]rifamycin 8-ethylcarbonate] | 0.76 mg/kg | 
4 | 4.5 | > 300 mg/mL | CO[C@H]1/C=C/O[C@@]2(C)Oc3c(C)c(OC(C)=O)c4c(O)c(c(/C=N/N5CCN(C)CC5)c(OC(C)=O)c4c3C2=O)NC(=O)/C(C)=C\C=C\[C@H](C)[C@H](O)[C@@H](C)[C@@H](O)[C@@H](C)[C@H](OC(C)=O)[C@@H]1C [Example 7] | 1.5 mg/kg | 
5 |  |  | CCC(=O)Oc1c(C)c2c3c4c(O)c(/C=N/N5CCN(C)CC5)c(c(O)c14)NC(=O)/C(C)=C\C=C\[C@H](C)[C@H](O)[C@@H](C)[C@@H](O)[C@@H](C)[C@H](OC(C)=O)[C@H](C)[C@@H](OC)/C=C/O[C@@](C)(O2)C3=O [Example 5, 3-[[(4-methyl-1-piperazinyl)imino]methyl]rifamycin 8-pro-panoate] | 1.2 mg/kg | 
